From patent US20050107437A1, “Novel herbicides” (priority 2001, published 2005)

Legend:
Type in all cases: in vivo
[1] = system: Amaranthus (Amar); assay: Pre-emergence herbicidal action (Example B1); parameters: key: 1=total damage; 9=no action; Ratings of from 1 to 4 (especially from 1 to 3) indicate good to very good herbicidal action; conditions: 1000 g of active ingredient/ha, 4 weeks, scale of nine ratings
Method: (§1) Monocotyledonous and dicotyledonous test plants are sown in standard soil in pots. Immediately after sowing, the test compounds, in the form of an aqueous suspension (prepared from a wettable powder (Example F3, b) according to WO 97/34485) or in the form of an emulsion (prepared from an emulsifiable concentrate (Example F1, c) according to WO 97/34485), are applied by spraying in an optimum concentration (500 litres of water/ha). The test plants are then grown in a greenhouse under optimum conditions. After a test duration of 4 weeks, the test is evaluated in accordance with a scale of nine ratings (1=total damage, 9=no action). Ratings of from 1 to 4 (especially from 1 to 3) indicate good to very good herbicidal action. Test plants: Setaria (Seta), Panicum (Pani), Echinochloa (Ds) (Echino), Amaranthus (Amar), Chenopodium (Cheno), Stellaria (Stella), Veronica, Euphorbia (Eupho), Brachiaria (Brachi).

[2] = system: Brachiaria (Brachi); assay: Pre-emergence herbicidal action (Example B1); parameters: key: 1=total damage; 9=no action; Ratings of from 1 to 4 (especially from 1 to 3) indicate good to very good herbicidal action; conditions: 1000 g of active ingredient/ha, 4 weeks, scale of nine ratings
Method: as §1

[3] = system: Echinochloa (Ds) (Echino); assay: Pre-emergence herbicidal action (Example B1); parameters: key: 1=total damage; 9=no action; Ratings of from 1 to 4 (especially from 1 to 3) indicate good to very good herbicidal action; conditions: 1000 g of active ingredient/ha, 4 weeks, scale of nine ratings
Method: as §1

[4] = system: Euphorbia (Eupho); assay: Pre-emergence herbicidal action (Example B1); parameters: key: 1=total damage; 9=no action; Ratings of from 1 to 4 (especially from 1 to 3) indicate good to very good herbicidal action; conditions: 1000 g of active ingredient/ha, 4 weeks, scale of nine ratings
Method: as §1

[5] = system: Panicum (Pani); assay: Pre-emergence herbicidal action (Example B1); parameters: key: 1=total damage; 9=no action; Ratings of from 1 to 4 (especially from 1 to 3) indicate good to very good herbicidal action; conditions: 1000 g of active ingredient/ha, 4 weeks, scale of nine ratings
Method: as §1

[6] = system: Setaria (Seta); assay: Pre-emergence herbicidal action (Example B1); parameters: key: 1=total damage; 9=no action; Ratings of from 1 to 4 (especially from 1 to 3) indicate good to very good herbicidal action; conditions: 1000 g of active ingredient/ha, 4 weeks, scale of nine ratings
Method: as §1

[7] = system: Chenopodium (Cheno); assay: Post-emergence herbicidal action (Example B2); conditions: 1000 g of active ingredient/ha, evaluated after 2 to 3 weeks, scale 1-9
Method: as §1, with “pots. When the test plants are at the 2- to 3-leaf stage,” for “pots. Immediately after sowing,”, “grown on” for “grown”, “of 2 to 3” for “of 4”, “Euphorbia (Eupho).” for “Euphorbia (Eupho), Brachiaria (Brachi).”

[8] = system: Echinochloa (Ds) (Echino); assay: Post-emergence herbicidal action (Example B2); conditions: 1000 g of active ingredient/ha, evaluated after 2 to 3 weeks, scale 1-9
Method: as §1, with “pots. When the test plants are at the 2- to 3-leaf stage,” for “pots. Immediately after sowing,”, “grown on” for “grown”, “of 2 to 3” for “of 4”, “Euphorbia (Eupho).” for “Euphorbia (Eupho), Brachiaria (Brachi).”

[9] = system: Panicum (Pani); assay: Post-emergence herbicidal action (Example B2); conditions: 1000 g of active ingredient/ha, evaluated after 2 to 3 weeks, scale 1-9
Method: as §1, with “pots. When the test plants are at the 2- to 3-leaf stage,” for “pots. Immediately after sowing,”, “grown on” for “grown”, “of 2 to 3” for “of 4”, “Euphorbia (Eupho).” for “Euphorbia (Eupho), Brachiaria (Brachi).”

[10] = system: Setaria (Seta); assay: Post-emergence herbicidal action (Example B2); conditions: 1000 g of active ingredient/ha, evaluated after 2 to 3 weeks, scale 1-9
Method: as §1, with “pots. When the test plants are at the 2- to 3-leaf stage,” for “pots. Immediately after sowing,”, “grown on” for “grown”, “of 2 to 3” for “of 4”, “Euphorbia (Eupho).” for “Euphorbia (Eupho), Brachiaria (Brachi).”

[11] = system: Amaranthus (Amar); assay: Post-emergence herbicidal action (Example B2); parameters: key: 1=total damage; 9=no action; Ratings of from 1 to 4 (especially from 1 to 3) indicate good to very good herbicidal action; conditions: 1000 g of active ingredient/ha, evaluated after 2 to 3 weeks, scale 1-9
Method: as §1, with “pots. When the test plants are at the 2- to 3-leaf stage,” for “pots. Immediately after sowing,”, “grown on” for “grown”, “of 2 to 3” for “of 4”, “Euphorbia (Eupho).” for “Euphorbia (Eupho), Brachiaria (Brachi).”

[12] = system: Euphorbia (Eupho); assay: Post-emergence herbicidal action (Example B2); parameters: key: 1=total damage; 9=no action; Ratings of from 1 to 4 (especially from 1 to 3) indicate good to very good herbicidal action; conditions: 1000 g of active ingredient/ha, evaluated after 2 to 3 weeks, scale 1-9
Method: as §1, with “pots. When the test plants are at the 2- to 3-leaf stage,” for “pots. Immediately after sowing,”, “grown on” for “grown”, “of 2 to 3” for “of 4”, “Euphorbia (Eupho).” for “Euphorbia (Eupho), Brachiaria (Brachi).”

[13] = system: Chenopodium (Cheno); assay: Pre-emergence herbicidal action (Example B1); parameters: key: 1=total damage; 9=no action; Ratings of from 1 to 4 (especially from 1 to 3) indicate good to very good herbicidal action; conditions: 1000 g of active ingredient/ha, 4 weeks, scale of nine ratings
Method: as §1

[14] = system: Stellaria (Stella); assay: Pre-emergence herbicidal action (Example B1); parameters: key: 1=total damage; 9=no action; Ratings of from 1 to 4 (especially from 1 to 3) indicate good to very good herbicidal action; conditions: 1000 g of active ingredient/ha, 4 weeks, scale of nine ratings
Method: as §1

[15] = system: Veronica; assay: Pre-emergence herbicidal action (Example B1); conditions: 1000 g of active ingredient/ha, 4 weeks, scale of nine ratings
Method: as §1

[16] = system: Stellaria (Stella); assay: Post-emergence herbicidal action (Example B2); conditions: 1000 g of active ingredient/ha, evaluated after 2 to 3 weeks, scale 1-9
Method: as §1, with “pots. When the test plants are at the 2- to 3-leaf stage,” for “pots. Immediately after sowing,”, “grown on” for “grown”, “of 2 to 3” for “of 4”, “Euphorbia (Eupho).” for “Euphorbia (Eupho), Brachiaria (Brachi).”

[17] = system: Veronica; assay: Post-emergence herbicidal action (Example B2); conditions: 1000 g of active ingredient/ha, evaluated after 2 to 3 weeks, scale 1-9
Method: as §1, with “pots. When the test plants are at the 2- to 3-leaf stage,” for “pots. Immediately after sowing,”, “grown on” for “grown”, “of 2 to 3” for “of 4”, “Euphorbia (Eupho).” for “Euphorbia (Eupho), Brachiaria (Brachi).”

Compound | Herbicidal rating Amar [1] | Herbicidal rating Brachi [2] | Herbicidal rating Echino (Ds) [3] | Herbicidal rating Eupho [4] | Herbicidal rating Pani [5] | Herbicidal rating Seta [6] | Post-emergence herbicidal action rating, Cheno [7] | Post-emergence herbicidal action rating, Echino (Ds) [8] | Post-emergence herbicidal action rating, Pani [9] | Post-emergence herbicidal action rating, Seta [10] | Post-emergence herbicidal action rating, Amar [11] | Post-emergence herbicidal action rating, Eupho [12] | Herbicidal rating Cheno [13] | Herbicidal rating Stella [14] | Herbicidal rating Veronica [15] | Post-emergence herbicidal action rating, Stella [16] | Post-emergence herbicidal action rating, Veronica [17]
COc1cc(Cl)cnc1OCC#Cc1cccc(OCC#N)n1 [1.063, 2-[3-(6-cyanomethoxy-pyrid-2-yl)-prop-2-ynyloxy]-5-chloro-3-methoxypyridine] | 1 | 1 | 4 | 1 | 1 | 2 | 2 | 3 | 3 | 5 | 2 | 1 | – | – | – | – | –
COc1cc(F)cnc1OCC#Cc1ccc(Cl)nc1 [2.005, 2-[3-(6-chloro-pyrid-3-yl)-prop-2-ynyloxy]-5-fluoro-3-methoxy-pyridine] | – | 1 | 1 | 5 | 4 | 4 | 3 | – | 4 | 3 | 1 | 1 | 1 | 1 | 4 | 2 | 2
COc1cc(Cl)cnc1OCC#Cc1ccc(Cl)nc1 [2.006, 5-chloro-2-[3-(6-chloro-pyrid-3-yl)-prop-2-ynyloxy]-3-methoxy-pyridine] | 1 | 1 | 1 | 1 | 1 | 1 | 2 | – | 2 | 2 | 2 | 1 | – | 1 | 5 | 2 | 2
